Results as given in patent publication US5041581A (priority 1986, dated 1991).

Experiments:
L1210 cells = experiment: In vitro growth inhibition of L1210 leukemic cells (96 hours, Coulter Counter); assay type: cell-based, murine; details: 5760 min
Protocol: Four ml of cell suspension were added to culture tubes and the appropriate concentration of free PT or L-PT was added (from 0.01 micro g/ml to 10 micro g/ml final concentration). After 96 hours, the cell concentration of control and experimental cultures were calculated with a Coulter Counter (Coulter Electronics, Hialeah, FLA) and the percent inhibition calculated. The following preparations were tested: free PT, DMPG, DMPC:DMPG 7:3, DMPG-PT and DMPC:DMPG 7:3-PT.

[1] = Stability of L-PT in 0.9% saline at 4° C. for 14 days; assay type: physicochemical; details: 0.9% saline, 4° C., DMPC:DMPG 7:3
Protocol: The stability of the different liposome-PT (L-PT) preparations in 0.9% NaCl solution at 4° C., and 50% human (AB) serum in 0.9% NaCl solution at 37° C. was determined using the following formula: [formula]
The EE values used in the stability determinations were obtained by measuring PT in the supernatants by UV spectrophotometry (0.9% NaCl solution) or x-ray fluorescence (50% human AB serum). The stability in 0.9% NaCl solution was determined up to 14 days after the initial preparation. In addition, the L-PT preparations were observed microscopically on day 14 to check the morphology of the vesicles. The stability in 50% human AB serum was determined up to 18 hours after incubation.
Preparations were suspended in 0.9% saline and incubated at 4° C. for 14 days. The liposome compositions were observed by light microscopy and the amount of free PT in the saline determined. […] Free PT was determined and stability was calculated as the percentage PT remaining in the liposomes.

L1210 mouse leukemia = experiment: In vivo antitumor activity against L1210 mouse leukemia (L1210-BDF1 mouse model); set-up: species or system BDF1 mice; details: for % T/C, mean: means of three experiments
Protocol: BDF1 mice were purchased from Charles River (Wilmington, MA). Groups of 6-8 mice weighing 18-22 gm were inoculated ip with 1×10^6 L1210 leukemia cells on day 0. L1210 cells were kept in DBA2 mice were weekly passages between the different experiments. All L-PT preparations were injected ip in volumes of 0.1 to 0.3 ml 24 hours after tumor inoculation. Two different schedules of administration were used: a single injection on day 1 or an injection on days 1, 5 and 9 (multiple). […] Clinical behavior and survival times were monitored until all animals had died. Results were expressed as % T/C (median survival time of treated mice/median survival time of control mice ×100) and number of long-term survivors. Mice living more than 30 days and more than 60 days were considered to be long-term survivors for the single and multiple injection schedule respectively. All L-PT preparations tested for antitumor activity were prepared under sterile conditions on the same day of the experiment.
The antitumor activity against L-1210 murine leukemia of the different L-PT analogs was assessed in an L-1210-BDF, mouse model (tumor inoculation day 0, treatment day 1, ip) as described earlier herein.
These liposome-encapsulated compounds were tested to determine their optimal dose and effectiveness as inhibitors of in vivo tumor growth as described in Example 12.

[2] = Acute toxicity (LD10, LD50, LD90) in CD-1 Swiss mice; assay type: in vivo
Protocol: Toxicology studies were carried out in 6-8 weeks old CD-1 Swiss mice weighing 22-25 gm and purchased from The University of Texas Science Park (Bastrop, TX). Free PT in suspension in hydroxypropylcellulose, DMPG, DMPG-PT, DMPC:DMPG 7:3 and DMPC:DMPG 7:3-PT were administered intraperitoneally (ip) in volumes ranging between 0.1 and 0.3 ml. DMPC:DMPG 7:3-PT was also administered intravenously (iv) in one single injection or in 3 daily injections. The clinical behavior and the survival times were monitored on a daily basis.

[3] = Nephrotoxicity: blood urea nitrogen (BUN) 96 hours after ip LD50 dose; assay type: in vivo, CD1 Swiss mice; details: for BUN at 96 hours: ip single injection at LD50 dose
Protocol: All L-PT preparations tested for toxicity were prepared under sterile conditions on the same day of the experiments.

[4] = tested on: liver metastases of M5076 reticulosarcoma; experiment: Prophylaxis of liver metastases of mouse M5076 reticulosarcoma; assay type: in vivo, mouse (C57BL/6); details: day 21, 10 mg/kg day -1, 10^4 cells iv
Excerpt: NeodecanoatoRacemic-DACH. Animals were inoculated on day 0 with 10^4
M5076 cells intravenously.
Treated animals were sacrificed on day 21, the livers dissected,
placed in Bouin's fixative, and the number of tumor colonies counted.

[5] = tested on: liver metastases of M5076 reticulosarcoma; experiment: Treatment of established liver metastases of mouse M5076 reticulosarcoma; assay type: in vivo, mouse (C57BL/6); details: for No. Liver Metastases, mean ± SD: day 30, 7.5 mg/kg days 8, 12, 16, 10^5 cells iv, 7.5 mg/kg
Protocol: Animals were treated on days 8, 12, and 16 with
Treated animals were sacrificed on day 30,
Animals were treated on days 4, 8, and 12 with
Treated animals were sacrificed on day 45,

[6] = MLV, 48 hours in 0.9% NaCl solution; cited from earlier work

## O=C([O][Pt]1([O]C(=O)C2=CCCC2)[NH]C2CCCCC2[NH]1)C1=CCCC1 (mixture of isomers) [Pt-cyclopentenecarboxylato racemic-DACH mixture, cis-bis-cyclopentenecarboxylato-1,2-DACH-platinum (II)]
L1210 cells; Exp. 1
  ID50: 1.3 micro g/ml
[1]
  Stability % (PT remaining in the liposomes): 89%
L1210 mouse leukemia; 6.25 mg/kg × 3 ip, days 1, 5 and 9
  % T/C: 168%
L1210 mouse leukemia; 12.5 mg/kg and 25 mg/kg, single ip dose
  % T/C, mean: 162%
L1210 mouse leukemia; 12.5 mg/kg ip day 1, Exp. 1
  % T/C: 173%
L1210 mouse leukemia; 12.5 mg/kg ip day 1, Exp. 2
  % T/C: 136%
L1210 mouse leukemia; 12.5 mg/kg ip day 1, Exp. 3
  % T/C: 179%
L1210 mouse leukemia; 12.5 mg/kg × 3 ip, days 1, 5 and 9
  % T/C: 284%
L1210 mouse leukemia; 25 mg/kg ip day 1, Exp. 3
  % T/C: 168%
L1210 mouse leukemia; 25 mg/kg ip day 1, liposomes DMPC:DMPG 7:3 (Table 8)
  % T/C: 213%
L1210 mouse leukemia; 25 mg/kg × 3 ip, days 1, 5 and 9
  % T/C: 158%
[2]; ip single injection (Table 4, CD1 mice), 20160 min
  LD50 Dose: 91 mg/kg
[2]; ip × 1
  LD10: 61 mg/kg
  LD90: 125 mg/kg
[2]; ip × 1, 20160 min
  LD50: 91 mg/kg
[3]; listed as Free PT
  BUN at 96 hours: 34.4 ± 9.6 mg %
[3]; listed as PT in suspension in hydroxypropylcellulose
  BUN at 96 hours: 34.4±9.6 mg %
[3]; ip, LD50 dose, 96 hours
  BUN elevation, in words: no significant BUN elevations

## N.N.[Cl][Pt][Cl] [CDDP, Cis-platinum, reference compound]
L1210 cells; footnote of Table 5
  CDDP ID50: 0.1 micro g/ml
L1210 mouse leukemia; 7.5 mg/kg × 3 ip, days 1, 5 and 9
  % T/C: 253%
L1210 mouse leukemia; 10 mg/kg ip day 1, Exp. 1
  % T/C: 167%
L1210 mouse leukemia; 10 mg/kg ip day 1, Exp. 3
  % T/C: 189%
  Number of Survivors on Day 30: 1/6
L1210 mouse leukemia; 10 mg/kg ip day 1, dissolved in saline (Table 8)
  % T/C: 175%
L1210 mouse leukemia; 10 mg/kg, single ip dose
  % T/C, mean: 178%
L1210 mouse leukemia; single ip dose, more than 30 days
  Long-term survivors: one or two mice of six
[4]; listed as Cis-platinum
  No. Liver Metastases, mean ± SD: 256 ± 54
[4]; listed as cis-platinum
  No. Liver Metastases, mean ± SD: 256 ±54
[5]; listed as Cis-platinum
  No. Liver Metastases, mean ± SD: 114 ± 38
[5]; listed as cis-platinum
  No. Liver Metastases, mean ± SD: 114 ±38
[5]; day 45, 7.5 mg/kg days 4, 8, 12
  animals with 175 or more liver metastases: 4/6
[5]; groups of 6, days 4, 8, and 12
  animals that died before day 45: Two
[6]
  stability: 75%
